Assays:
Assay type in all cases: biochemical
Aurora-2 = target: T1, Aurora-2 (Homo sapiens, UniProt O14965); assay: Aurora-A (Aurora-2) Inhibition Assay, coupled enzyme assay; details: enzyme inhibition data (Ki), Table 11; read-out: AurA Ki
T1 sequence (O14965 1-403): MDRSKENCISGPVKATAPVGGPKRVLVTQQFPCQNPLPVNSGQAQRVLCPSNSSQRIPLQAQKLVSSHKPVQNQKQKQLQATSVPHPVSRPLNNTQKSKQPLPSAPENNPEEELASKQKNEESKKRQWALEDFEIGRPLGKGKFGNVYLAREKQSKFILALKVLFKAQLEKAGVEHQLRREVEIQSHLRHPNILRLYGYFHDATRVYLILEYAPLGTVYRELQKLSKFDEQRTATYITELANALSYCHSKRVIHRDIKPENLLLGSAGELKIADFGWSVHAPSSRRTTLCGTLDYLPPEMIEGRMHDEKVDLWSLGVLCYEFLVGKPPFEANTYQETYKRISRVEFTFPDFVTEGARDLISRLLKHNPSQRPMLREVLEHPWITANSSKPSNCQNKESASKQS
Experimental: Compounds are screened for their ability to inhibit Aurora-2 using a standard coupled enzyme assay (Fox et al., Protein Sci., (1998) 7, 2249). Assays are carried out in a mixture of 100 mM Hepes (pH7.5), 10 mM MgCl2, 1 mM DTT, 25 mM NaCl, 2.5 mM phosphoenolpyruvate, 300 μM NADH, 30 μg/ml pyruvate kinase and 10 μg/ml lactate dehydrogenase. Final substrate concentrations in the assay are 400 μM ATP (Sigma Chemicals) and 570 μM peptide (Kemptide, American Peptide, Sunnyvale, Calif.). Assays are carried out at 30° C. and in the presence of 40 nM Aurora-2.
An assay stock buffer solution is prepared containing all of the reagents listed above, with the exception of Aurora-2 and the test compound of interest. 55 μl of the stock solution is placed in a 96 well plate followed by addition of 2 μl of DMSO stock containing serial dilutions of the test compound (typically starting from a final concentration of 7.5 μM). The plate is preincubated for 10 minutes at 30° C. and the reaction initiated by addition of 10 μl of Aurora-2. Initial reaction rates are determined with a Molecular Devices SpectraMax Plus plate reader over a 10 minute time course. IC50 and Ki data are calculated from non-linear regression analysis using the Prism software package (GraphPad Prism version 3.0cx for Macintosh, GraphPad Software, San Diego Calif., USA).

Itk = target: T2, Itk (Homo sapiens, UniProt Q08881); assay: ITK Inhibition Assay (Radiometric), radioactive-phosphate incorporation; details: enzyme inhibition data (Ki), Table 11; radiometric or UV assay not stated
T2 sequence (Q08881 1-620): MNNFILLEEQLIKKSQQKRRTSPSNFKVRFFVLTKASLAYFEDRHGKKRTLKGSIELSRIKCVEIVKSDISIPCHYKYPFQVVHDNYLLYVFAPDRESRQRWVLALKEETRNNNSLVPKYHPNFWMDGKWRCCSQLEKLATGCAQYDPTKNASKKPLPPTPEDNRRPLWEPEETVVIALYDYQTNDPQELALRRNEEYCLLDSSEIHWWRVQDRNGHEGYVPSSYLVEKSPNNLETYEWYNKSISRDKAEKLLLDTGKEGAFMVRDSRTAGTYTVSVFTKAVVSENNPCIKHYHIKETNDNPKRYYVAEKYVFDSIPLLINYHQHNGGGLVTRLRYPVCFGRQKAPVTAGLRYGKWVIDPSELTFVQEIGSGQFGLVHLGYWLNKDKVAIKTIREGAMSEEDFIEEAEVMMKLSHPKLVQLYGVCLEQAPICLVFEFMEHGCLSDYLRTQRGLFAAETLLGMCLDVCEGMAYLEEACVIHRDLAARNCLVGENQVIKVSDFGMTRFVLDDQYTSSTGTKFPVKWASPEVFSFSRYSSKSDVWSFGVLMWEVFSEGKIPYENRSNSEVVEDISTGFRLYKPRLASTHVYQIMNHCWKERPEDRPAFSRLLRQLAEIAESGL
How it was run: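 Radiometric 33P incorporation into SAM68 peptide (D332-443) with filter capture and scintillation counting; 10 min pre-incubation then 10 min reaction at 25° C. IC50 format: 30 nM Itk, 15 μM ATP, 2 μM peptide, HEPES pH 7.5. Ki(app) format: 50 nM Itk, 7.5 μM ATP, 3 μM peptide, MOPS pH 7.0.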

c-Met = c-Met (Homo sapiens, UniProt P08581); assay: c-Met Inhibition Assay, coupled enzyme system; details: enzyme inhibition data (Ki), Table 11
Sequence of c-Met (P08581 25-1390): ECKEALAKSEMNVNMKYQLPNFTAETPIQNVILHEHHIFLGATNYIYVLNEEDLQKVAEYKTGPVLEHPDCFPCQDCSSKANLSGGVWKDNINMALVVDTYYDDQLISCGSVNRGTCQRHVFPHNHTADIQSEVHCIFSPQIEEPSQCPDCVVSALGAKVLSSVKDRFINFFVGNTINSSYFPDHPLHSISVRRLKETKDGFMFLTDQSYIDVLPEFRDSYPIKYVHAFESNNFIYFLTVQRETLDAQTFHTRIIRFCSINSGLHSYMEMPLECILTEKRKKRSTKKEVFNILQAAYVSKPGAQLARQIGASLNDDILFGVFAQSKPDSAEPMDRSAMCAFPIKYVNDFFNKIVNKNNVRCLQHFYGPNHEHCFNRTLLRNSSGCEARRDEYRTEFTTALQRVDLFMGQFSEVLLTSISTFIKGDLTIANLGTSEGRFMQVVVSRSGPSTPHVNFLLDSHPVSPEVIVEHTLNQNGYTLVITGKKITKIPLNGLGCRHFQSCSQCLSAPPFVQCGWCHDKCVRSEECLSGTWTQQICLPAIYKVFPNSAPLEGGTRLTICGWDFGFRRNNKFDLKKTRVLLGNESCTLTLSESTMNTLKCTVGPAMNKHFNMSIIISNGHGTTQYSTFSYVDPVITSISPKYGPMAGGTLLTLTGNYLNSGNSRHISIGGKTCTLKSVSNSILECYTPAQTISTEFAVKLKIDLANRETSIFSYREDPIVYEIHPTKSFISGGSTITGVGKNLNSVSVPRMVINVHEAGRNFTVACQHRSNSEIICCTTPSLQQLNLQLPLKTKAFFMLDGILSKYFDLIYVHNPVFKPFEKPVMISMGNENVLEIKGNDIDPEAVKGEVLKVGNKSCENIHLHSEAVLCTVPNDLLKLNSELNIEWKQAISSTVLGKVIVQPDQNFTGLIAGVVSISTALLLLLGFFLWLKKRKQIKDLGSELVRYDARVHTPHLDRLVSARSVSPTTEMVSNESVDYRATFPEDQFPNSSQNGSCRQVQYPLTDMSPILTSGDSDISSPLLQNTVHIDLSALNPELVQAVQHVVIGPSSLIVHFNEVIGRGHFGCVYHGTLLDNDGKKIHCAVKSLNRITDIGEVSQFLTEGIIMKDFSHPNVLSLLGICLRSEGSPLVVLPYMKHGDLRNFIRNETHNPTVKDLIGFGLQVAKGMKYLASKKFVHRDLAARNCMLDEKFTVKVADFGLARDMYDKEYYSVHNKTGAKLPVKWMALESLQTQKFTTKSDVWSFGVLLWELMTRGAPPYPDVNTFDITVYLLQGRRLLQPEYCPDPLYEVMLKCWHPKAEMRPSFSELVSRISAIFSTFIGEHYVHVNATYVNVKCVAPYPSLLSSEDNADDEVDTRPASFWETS
How it was run: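 Pyruvate kinase/lactate dehydrogenase-coupled NADH assay in HEPES pH 7.5 with 80 nM c-Met, 200 μM ATP and 10 μM polyGluTyr at 30° C. Compound (0.006–12.5 μM final, 12-point) preincubated 10 min before ATP start; rates over 10 min gave Ki.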

JAK3 = target: T3, JAK3 (Homo sapiens, UniProt P52333); assay: JAK3 Inhibition Assay, 33P incorporation; details: enzyme inhibition data (Ki), Table 11
T3 sequence (P52333 1-1124): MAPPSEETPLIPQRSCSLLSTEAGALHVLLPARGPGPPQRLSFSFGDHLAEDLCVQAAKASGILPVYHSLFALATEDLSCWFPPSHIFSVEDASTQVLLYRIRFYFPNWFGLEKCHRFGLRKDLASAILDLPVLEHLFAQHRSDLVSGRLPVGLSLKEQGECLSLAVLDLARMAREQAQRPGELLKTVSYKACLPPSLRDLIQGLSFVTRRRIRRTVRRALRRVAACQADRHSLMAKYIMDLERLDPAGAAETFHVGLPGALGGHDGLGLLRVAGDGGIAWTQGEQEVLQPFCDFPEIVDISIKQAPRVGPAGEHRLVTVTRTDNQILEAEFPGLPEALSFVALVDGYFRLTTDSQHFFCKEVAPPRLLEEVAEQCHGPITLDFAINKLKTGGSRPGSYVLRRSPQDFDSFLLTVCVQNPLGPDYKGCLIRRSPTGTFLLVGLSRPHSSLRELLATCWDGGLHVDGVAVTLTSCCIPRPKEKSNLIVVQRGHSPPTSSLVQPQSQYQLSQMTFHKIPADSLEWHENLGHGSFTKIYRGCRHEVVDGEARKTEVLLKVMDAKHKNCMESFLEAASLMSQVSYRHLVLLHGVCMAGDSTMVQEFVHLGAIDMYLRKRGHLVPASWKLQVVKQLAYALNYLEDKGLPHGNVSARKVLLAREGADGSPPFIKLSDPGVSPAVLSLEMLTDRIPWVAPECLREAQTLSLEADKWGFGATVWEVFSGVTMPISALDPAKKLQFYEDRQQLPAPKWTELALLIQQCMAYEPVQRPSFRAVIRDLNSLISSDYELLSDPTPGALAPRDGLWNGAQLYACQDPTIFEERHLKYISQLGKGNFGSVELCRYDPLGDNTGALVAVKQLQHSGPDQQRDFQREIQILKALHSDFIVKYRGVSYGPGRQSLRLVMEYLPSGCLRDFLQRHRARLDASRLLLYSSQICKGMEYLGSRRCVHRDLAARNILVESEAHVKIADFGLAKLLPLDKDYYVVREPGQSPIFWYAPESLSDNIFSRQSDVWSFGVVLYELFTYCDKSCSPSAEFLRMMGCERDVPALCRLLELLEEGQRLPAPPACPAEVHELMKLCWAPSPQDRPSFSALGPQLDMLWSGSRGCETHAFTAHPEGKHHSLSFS
How it was run: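 33P incorporation into 1 μM poly(Glu)4Tyr was counted after TCA stop and glass fiber filtration. The 20 min reaction ran at 25 °C with 1 nM JAK3 and 5 μM ATP (200 uCi/μmole). Buffer was 100 mM HEPES pH 7.4, 10 mM MgCl2, 25 mM NaCl, 1 mM DTT, 0.01% BSA.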

For `CC(C)(C)OC(=O)NCc1ccc(-c2cnc3c(-c4ccccn4)c(N)nn3c2)cc1` [Compound V-192], the Ki (Aurora-2) was < 500 nM and the Ki (Itk) was < 500 nM.

In the case of `Nc1nn2cc(-c3ccc(CN4CCCNCC4)cc3)cnc2c1-c1ccccn1` [Compound V-224], the Ki (c-Met) is reported as < 500 nM, the Ki (Aurora-2) is reported as < 500 nM and the Ki (Itk) is reported as < 500 nM.

In the case of `N#Cc1cccc(-c2cnc3c(-c4ccccn4)c(N)nn3c2)c1` [Compound V-197], the Ki (c-Met) is reported as < 500 nM, the Ki (JAK3) is reported as > 5000 nM and the Ki (Itk) is reported as < 500 nM.

`Cc1cnc2c(-c3cc(N4CCC(S(C)(=O)=O)C4)ncn3)c(N)nn2c1` (centres unmarked) [Compound V-308] was tested, and the Ki (c-Met) was < 500 nM, the Ki (JAK3) was < 500 nM and the Ki (Itk) was < 500 nM.

With `CC(C)N(C)C(=O)c1cccc(-c2cnc3c(-c4ccccn4)c(N)nn3c2)n1` [Compound V-103] the Ki (c-Met) was < 500 nM, the Ki (JAK3) was > 5000 nM and the Ki (Itk) was 500 to 5000 nM.

For `Cc1cnc2c(-c3cc(N4CCCC(C(N)=O)C4)ncn3)c(N)nn2c1` (centres unmarked) [Compound V-309], the Ki (c-Met) was < 500 nM, the Ki (JAK3) was < 500 nM and the Ki (Itk) was 500 to 5000 nM.

`Cc1cnc2c(-c3cc(N4CCCC4c4ccc(F)cc4)ncn3)c(N)nn2c1` (centres unmarked) [Compound V-307] was tested, and the Ki (c-Met) was < 500 nM, the Ki (JAK3) was 500 to 5000 nM and the Ki (Itk) was 500 to 5000 nM.

For `Nc1nn2cc(N3CCC[C@@H]3CN3CCCC3)cnc2c1-c1ccccn1` [Compound V-272], the Ki (c-Met) was 500 to 5000 nM, the Ki (JAK3) was > 5000 nM and the Ki (Itk) was 500 to 5000 nM.

Reference: US7528138B2, “Pyrazolo[1,5-a]pyrimidines useful as inhibitors of protein kinases” (Vertex Pharmaceuticals Incorporated, priority 2004, dated 2009)
